# Source: patent publication US11505547B2, “Compounds” (STEP PHARMA S.A.S., priority 2017, dated 2022)
# Target: T1, human CTPS1 (Homo sapiens, UniProt P17812)
# T1 construct: purchased Proteros biostructures GmbH
# T1 sequence (P17812 1-591): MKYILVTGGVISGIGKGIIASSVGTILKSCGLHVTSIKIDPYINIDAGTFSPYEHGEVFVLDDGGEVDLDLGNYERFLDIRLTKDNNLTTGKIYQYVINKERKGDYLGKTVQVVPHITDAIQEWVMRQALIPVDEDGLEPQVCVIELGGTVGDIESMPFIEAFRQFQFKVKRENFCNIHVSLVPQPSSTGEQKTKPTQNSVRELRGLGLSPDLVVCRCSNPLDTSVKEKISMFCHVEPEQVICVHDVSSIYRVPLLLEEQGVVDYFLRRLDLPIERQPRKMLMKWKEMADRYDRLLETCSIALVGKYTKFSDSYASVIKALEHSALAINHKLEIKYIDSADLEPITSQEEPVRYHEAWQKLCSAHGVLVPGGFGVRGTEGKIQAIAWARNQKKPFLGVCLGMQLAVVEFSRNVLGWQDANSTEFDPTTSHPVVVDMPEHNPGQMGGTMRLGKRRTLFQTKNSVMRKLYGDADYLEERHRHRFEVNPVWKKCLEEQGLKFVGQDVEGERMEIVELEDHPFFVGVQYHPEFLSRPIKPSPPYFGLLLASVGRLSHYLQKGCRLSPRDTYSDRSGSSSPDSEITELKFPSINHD
# Assay: Human CTPS1 enzyme inhibition, ADP-Glo Max assay
# Format: biochemical
# Conditions: human full length CTPS1, read-out: CTPS1 (Human CTPS1 Enzyme Inhibition data grouped by potency range, IC50)
# Procedure: Biological Example 1—Human CTPS1 Enzyme Inhibition
# The enzyme inhibitory activities of compounds invented against the target of interest were determined using the ADP-Glo™ Max assay (Promega, UK). Assays for human CTPS1 were performed in 1× assay buffer containing 50 mM Tris, 10 mM MgCl2, 0.01% Tween-20, pH to 8.0 accordingly. Finally, immediately before use, L-cysteine was added to the 1× assay buffer to a final concentration of 2 mM. All reagents are from Sigma-Aldrich unless specified otherwise. Human full length active C-terminal FLAG-Hiss-tag CTPS1 (UniProtKB-P17812, CTPS[1-591]-[…]) was obtained from Proteros biostructures GmbH.
# 3× human CTPS1 protein was prepared in 1× assay buffer to the final working protein concentration required for the reaction. A 2 uL volume per well of 3× human CTPS1 protein was mixed with 2 uL per well of 3× test compound (compound prepared in 1× assay buffer to an appropriate final 3× compound concentration respective to the concentration response curve designed for the compounds under test) for 10 minutes at 25° C. The enzymatic reaction was then initiated by addition of a 2 uL per well volume of a pre-mixed substrate mix (UltraPure ATP from ADP-Glo™ Max kit (0.31 mM), GTP (0.034 mM), UTP (0.48 mM) and L-glutamine (0.186 mM)) and the mixture was incubated for an appropriate amount of time within the determined linear phase of the reaction at 25° C. under sealed plate conditions with constant agitation at 500 revolutions per minute (rpm). ADP-GIo™ Max reagent was added for 60 minutes (6 uL per well) and subsequently ADP-Glo™ Max development reagent was added for 60 minutes (12 uL per well) prior to signal detection in a microplate reader (EnVision® Multilabel Reader, Perkin Elmer). Following each reagent addition over the course of the assay, assay plates were pulse centrifuged for 30 seconds at 500 rpm.
# In all cases, the enzyme converts ATP to ADP and the ADP-Glo™ Max reagent subsequently depletes any remaining endogenous ATP in the reaction system. The ADP-Glo™ Max detection reagent converts the ADP that has been enzymatically produced back into ATP and using ATP as a substrate together with luciferin for the enzyme luciferase, light is generated which produces a detectable luminescence. […] The percentage inhibition produced by each concentration of compound was calculated using the equation shown below: […]
# Percentage inhibition was then plotted against compound concentration, and the 50% inhibitory concentration (IC50) was determined from the resultant concentration-response curve.
row,SMILES,IC50
1,"Cc1cc(-c2cncc(C(F)(F)F)n2)ccc1C(=O)NC(C)(C)c1csc(NS(=O)(=O)C2CC2)n1 [Example R45, N-(2-(2-(cyclopropanesulfonamido)thiazol-4-yl)propan-2-yl)-2-methyl-4-(6-(trifluoromethyl)pyrazin-2-yl)benzamide]",100 to 1000 nM
2,"CCOc1cncc(-c2ccc(C(=O)NC(C)(C)c3csc(NS(=O)(=O)C4CC4)n3)c(C)c2)n1 [Example R46, N-(2-(2-(cyclopropanesuIfonamido)thiazol-4-yl)propan-2-yl)-4-(6-ethoxypyrazin-2-yl)-2-methylbenzamide]",100 to 1000 nM
3,"CCOc1cncc(-c2ccc(C(=O)NC(C)(C)c3csc(NS(=O)(=O)C4CC4)n3)c(C(F)(F)F)c2)n1 [Example R47, N-(2-(2-(cyclopropanesuIfonamido)thiazol-4-yl)propan-2-yl)-4-(6-ethoxypyrazin-2-yl)-2-(trifluoromethyl)benzamide]",100 to 1000 nM
4,"COc1cc(-c2cncc(C(F)(F)F)n2)ccc1C(=O)NC(C)(C)c1csc(NS(=O)(=O)C2CC2)n1 [Example R48, N-(2-(2-(cyclopropanesuIfonamido)thiazol-4-yl)propan-2-yl)-2-methoxy-4-(6-(trifluoromethyl)pyrazin-2-yl)benzamide]",100 to 1000 nM
5,"COc1cc(-c2cncc(Cl)n2)ccc1C(=O)NC(C)(C)c1csc(NS(=O)(=O)C2CC2)n1 [Example R49, 4-(6-chloropyrazin-2-yl)-N-(2-(2-(cyclopropanesulfonamido)thiazol-4-yl)propan-2-yl)-2-methoxybenzamide]",100 to 1000 nM
6,"COc1cc(-c2cncc(C#N)n2)ccc1C(=O)NC(C)(C)c1csc(NS(=O)(=O)C2CC2)n1 [Example R50, 4-(6-cyanopyrazin-2-yl)-N-(2-(2-(cyclopropanesulfonamido)thiazol-4-yl)propan-2-yl)-2-methoxybenzamide]",1000 to 10000 nM
7,"CC(C)(NC(=O)c1ccc(-c2cncc(C(F)(F)F)n2)cc1)c1csc(NS(=O)(=O)C2CC2)n1 [Example R51, N-(2-(2-(cyclopropanesulfonamido)thiazol-4-yl)propan-2-yl)-4-(6-(trifluoromethyl)pyrazin-2-yl)benzamide]",< 100 nM
8,"CC(C)(NC(=O)c1ccc(-c2cncc(Cl)n2)cc1)c1csc(NS(=O)(=O)C2CC2)n1 [Example R52, 4-(6-chloropyrazin-2-yl)-N-(2-(2-(cyclopropanesulfonamido)thiazol-4-yl)propan-2-yl)benzamide]",< 100 nM
9,"Cc1cncc(-c2ccc(C(=O)NC(C)(C)c3csc(NS(=O)(=O)C4CC4)n3)cc2)n1 [Example R53, N-(2-(2-(cyclopropanesulfonamido)thiazol-4-yl)propan-2-yl)-4-(6-methylpyrazin-2-yl)benzamide]",100 to 1000 nM
10,"COc1cncc(-c2ccc(C(=O)NC(C)(C)c3csc(NS(=O)(=O)C4CC4)n3)cc2)n1 [Example R54, N-(2-(2-(cyclopropanesulfonamido)thiazol-4-yl)propan-2-yl)-4-(6-methoxypyrazin-2-yl)benzamide]",< 100 nM
11,"CCOc1cncc(-c2ccc(C(=O)NC(C)(C)c3csc(NS(=O)(=O)C4CC4)n3)cc2)n1 [Example R55, N-(2-(2-(cyclopropanesulfonamido)thiazol-4-yl)propan-2-yl)-4-(6-ethoxypyrazin-2-yl)benzamide]",< 100 nM
12,"CC(C)Oc1cncc(-c2ccc(C(=O)NC(C)(C)c3csc(NS(=O)(=O)C4CC4)n3)cc2)n1 [Example R56, N-(2-(2-(cyclopropanesulfonamido)thiazol-4-yl)propan-2-yl)-4-(6-isopropoxypyrazin-2-yl)benzamide]",< 100 nM
13,"CC(C)(NC(=O)c1ccc(-c2cncc(OCC(F)(F)F)n2)cc1)c1csc(NS(=O)(=O)C2CC2)n1 [Example R57, N-(2-(2-(cyclopropanesuIfonamido)thiazol-4-yl)propan-2-yl)-4-(6-(2,2,2-trifluoroethoxy)pyrazin-2-yl)benzamide]",100 to 1000 nM
14,"CC(C)(NC(=O)c1ccc(-c2cnccn2)cc1)c1csc(NS(=O)(=O)C2CC2)n1 [Example R58, N-(2-(2-(cyclopropanesulfonamido)thiazol-4-yl)propan-2-yl)-4-(pyrazin-2-yl)benzamide]",100 to 1000 nM
15,"CCOc1cncc(-c2ccc(C(=O)NC(C)(C)c3nc(NS(=O)(=O)C4CC4)sc3C)nc2)n1 [Example R72, N-(2-(2-(cyclopropanesuIfonamido)-5-methylthiazol-4-yl)propan-2-yl)-5-(6-ethoxypyrazin-2-yl)picolinamide]",1000 to 10000 nM
16,"CCOc1cncc(-c2ccc(C(=O)NC(C)(C)c3nc(NS(=O)(=O)C4CC4)sc3Cl)nc2)n1 [Example R73, N-(2-(5-chloro-2-(cyclopropanesulfonamido)thiazol-4-yl)propan-2-yl)-5-(6-ethoxypyrazin-2-yl)picolinamide]",1000 to 10000 nM
17,"CCOc1cncc(-c2ccc(C(=O)NC(C)(C)c3nc(NS(=O)(=O)C4CC4)sc3C)c(F)c2)n1 [Example R74, N-(2-(2-(cyclopropanesulfonamido)-5-methylthiazol-4-yl)propan-2-yl)-4-(6-ethoxypyrazin-2-yl)-2-fluorobenzamide]",100 to 1000 nM

# Next, values leading:
row,IC50,SMILES
1,100 to 1000 nM,"CCOc1cncc(-c2ccc(C(=O)NC(C)(C)c3nc(NS(=O)(=O)C4CC4)sc3Cl)c(F)c2)n1 [Example R75, N-(2-(5-chloro-2-(cyclopropanesulfonamido)thiazol-4-yl)propan-2-yl)-4-(6-ethoxypyrazin-2-yl)-2-fluorobenzamide]"
2,100 to 1000 nM,"Cc1cc(-c2cncc(C(F)(F)F)n2)ccc1C(=O)NC(C)(C)c1nc(NS(=O)(=O)C2CC2)sc1C [Example R76, N-(2-(2-(cyclopropanesuIfonamido)-5-methylthiazol-4-yl)propan-2-yl)-2-methyl-4-(6-(trifluoromethyl)pyrazin-2-yl)benzamide]"
3,1000 to 10000 nM,"Cc1cc(-c2cncc(C(F)(F)F)n2)ccc1C(=O)NC(C)(C)c1nc(NS(=O)(=O)C2CC2)sc1Cl [Example R77, N-(2-(5-chloro-2-(cyclopropanesulfonamido)thiazol-4-yl)propan-2-yl)-2-methyl-4-(6-(trifluoromethyl)pyrazin-2-yl)benzamide]"
4,100 to 1000 nM,"Cc1sc(NS(=O)(=O)C2CC2)nc1C(C)(C)NC(=O)c1ccc(-c2cncc(C(F)(F)F)n2)cc1 [Example R78, N-(2-(2-(cyclopropanesuIfonamido)-5-methylthiazol-4-yl)propan-2-yl)-4-(6-(trifluoromethyl)pyrazin-2-yl)benzamide]"
5,100 to 1000 nM,"CC(C)(NC(=O)c1ccc(-c2cncc(C(F)(F)F)n2)cc1)c1nc(NS(=O)(=O)C2CC2)sc1Cl [Example R79, N-(2-(5-chloro-2-(cyclopropanesulfonamido)thiazol-4-yl)propan-2-yl)-4-(6-(trifluoromethyl)pyrazin-2-yl)benzamide]"
6,< 100 nM,"CCOc1cncc(-c2ccc(C(=O)NC3(c4csc(NS(=O)(=O)C5CC5)n4)CC3)nc2)n1 [Example R80, N-(1-(2-(cyclopropanesulfonamido)thiazol-4-yl)cyclopropyl)-5-(6-ethoxypyrazin-2-yl)picolinamide]"
7,100 to 1000 nM,"O=C(NC1(c2csc(NS(=O)(=O)C3CC3)n2)CC1)c1ccc(-c2cccnc2)cc1 [Example R81, N-(1-(2-(cyclopropanesulfonamido)thiazol-4-yl)cyclopropyl)-4-(pyridin-3-yl)benzamide]"
8,< 100 nM,"CCOc1cncc(-c2ccc(C(=O)NC3(c4csc(NS(=O)(=O)C5CC5)n4)CC3)c(F)c2)n1 [Example R82, N-(1-(2-(cyclopropanesulfonamido)thiazol-4-yl)cyclopropyl)-4-(6-ethoxypyrazin-2-yl)-2-fluorobenzamide]"
